Reference: article PMC5590105 (Chemical communications (Cambridge, England), 2017)

Target: T1, heparanase (Homo sapiens, UniProt Q9Y251)
T1 sequence (Q9Y251 158-543 limits assumed): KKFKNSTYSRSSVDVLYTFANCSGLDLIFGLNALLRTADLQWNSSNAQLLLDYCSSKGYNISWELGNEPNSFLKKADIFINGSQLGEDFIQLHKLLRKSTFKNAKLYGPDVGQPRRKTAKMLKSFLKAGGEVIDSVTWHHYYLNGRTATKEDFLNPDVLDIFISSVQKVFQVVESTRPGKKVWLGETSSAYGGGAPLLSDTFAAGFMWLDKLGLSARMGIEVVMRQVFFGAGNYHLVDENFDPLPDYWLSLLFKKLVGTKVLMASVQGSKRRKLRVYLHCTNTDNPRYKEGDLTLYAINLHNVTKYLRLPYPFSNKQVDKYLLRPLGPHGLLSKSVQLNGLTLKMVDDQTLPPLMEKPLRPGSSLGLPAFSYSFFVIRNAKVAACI
T1 sequence (Q9Y251 36-109 limits assumed): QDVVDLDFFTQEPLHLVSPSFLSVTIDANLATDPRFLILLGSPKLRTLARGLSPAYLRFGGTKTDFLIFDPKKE
Assay: colorimetric WST-1 assay of cleavage by heparanase
Type: biochemical
Conditions: WST-1 colorimetric assay, over 21 h

hydrolysis by heparanase: readily cleaved by heparanase
SMILES: CO[C@H]1O[C@H](COS(=O)(=O)O)[C@@H](O[C@@H]2O[C@@H](C(=O)O)[C@@H](O[C@H]3O[C@H](COS(=O)(=O)O)[C@@H](O[C@@H]4O[C@H](C(=O)O)[C@@H](O[C@H]5O[C@H](COS(=O)(=O)O)[C@@H](O)[C@H](O)[C@H]5NS(=O)(=O)O)[C@H](O)[C@H]4O)[C@H](OS(=O)(=O)O)[C@H]3NS(=O)(=O)O)[C@H](O)[C@H]2OS(=O)(=O)O)[C@H](O)[C@H]1NS(=O)(=O)O [Fondaparinux]
